According to patent US20240408071A1, “NOVEL COMBINATION OF SEROTONIN RECEPTOR (5-HTR2B) ANTAGONIST AND AN IMMUNOMODULATOR AND CHEMOTHERAPEUTIC DRUGS FOR INHIBITION OF CANCER” (NATIONAL CENTRE FOR CELL SCIENCE, priority 2021, published 2024):

How the values were obtained:
[1] = test system: OVA-specific CD8 and CD4 T cells in MC38-cOVA tumor; test: OVA-specific T cell response in MC38-cOVA tumor-bearing mice (CFSE, tetramer flow cytometry); type: in vivo
Method: FIG. 11 depicts the effect of 5-HTR antagonists on the antigen-specific CTL response MC38 tumor model in mice: (A) Representative experimental plan of the adoptive transfer experiment where NRG mice. In brief, NRG mice were inoculated with MC38 on one flank and B16F10 cells on the other. These mice received total lymph node cells from naïve C57BL/6J mice or MC38 tumor-bearing control or RS-127445 treated mice. (B) Tumor volume data from the above-described experiment was measured and plotted (C) Immunocytochemistry data showing expression of H2-Kb-[…]^+ (red) on MC38 cells transfected with pCL-neo-OVA plasmid on the right side and MC38 cells without transfection. DAPI is used as a counterstain. (D-E) C7BL/6J mice were inoculated with an MC38-ova cell line and treated with RS-127445 or left untreated. After 10 days of such treatment, Total lymph node cells were harvested tagged with CFSE, and cultured in the presence of ovalbumin protein (50 μg/ml) for 5 days. After 5 days cells were checked for CFSE expression by flow cytometry to check proliferation. Here is the data (D) showing the CFSE in CD8^+ cells. The statistical data of the total percentage of CFSE^− CD8 T cells corresponding with the percentage of proliferated CD8 T cells were plotted. (F-G) Flow cytometric data and statistical analysis of the percentage of intra-tumoral H-2Kb^− […] tetramer^+ CD8 population from the control and RS-127445 treated MC38-ova tumor-bearing mice. (H-I) Flow cytometric data and statistical analysis of the percentage of intra-tumoral H-2Kb^− […] tetramer^+CD69^+ activated CD8 population from the control and RS-127445 treated MC38 tumor-bearing mice. (J-K) Flow cytometric data and statistical analysis of the percentage of intra-tumoral H-2K^b-[…] tetramer^+IFN-γ^+Granzyme B^+CD8 T cell population from the control and RS-127445 treated MC38 tumor-bearing mice. (D-E) Histogram overlay and statistical data comparison showing relative MFI of granzyme B on IFN-γ^+ OT-I-tetramer^+ CD8a^+ T cells from MC38-ova tumor of control and RS-127445 treated mice. The data shown are representative of one of the two independent experiments. All the statistical analysis was performed using either Student's t-test or two-way ANOVA using Sidak's multiple comparison test. *P<0.05; **P<0.01; […]; ****P<0.0001 Error bar represents mean±standard error of means (SEM).
FIG. 12 depicts that 5-HTR2B signalling affects the antigen-specific proliferation of CD4 T cells: (A-B) Total CD4 T cells were harvested from the lymph node of OT-II mice and they were tagged with CFSE and cultured in vitro in the presence or absence of OT-II peptide (Ova323-339), IL-2, 5-HTR2B agonist BW-723C86 (10 μM), Serotonin (20 μM) or 5-HTR2B antagonist RS-127445 (15 μM) for 5 days. After 5 days the proliferation of OT-II tetramer^+ CD4 T cells was measured and plotted as histogram overlay (A) or as statistical data (B). (C-D) Flow cytometric data and statistical analysis of the percentage of intra-tumoral OT-II-tetramer^+ IFNγ^+ CD4 T cell population from the control and RS-127445 treated MC38-ova tumor-bearing mice. (E-F) Flow cytometric data and statistical analysis of the percentage of intra-tumoral OT-II-tetramer^+ IFNγ^+ CD4 T cell population from the control and RS-127445 treated MC38-ova tumor-bearing mice. (G) Histogram overlay and statistical data comparison showing relative MFI of IL-10 on OT-II-tetramer^+ CD4^+ T cells from MC38-ova tumor of control and RS-127445 treated mice. All the statistical analysis was performed using either Student's ‘t’ test or two-way ANOVA using Sidak's multiple comparison test. *P<0.05; **P<0.01; […]; ****P<0.0001 Error bar represents mean±standard error of means (SEM).
A simple adoptive transfer experiment was performed to study the enhancement of CTL response in general or antigen-specific. […]

MC38 cells = test: Cell cycle analysis of MC38 cells by propidium iodide staining (flow cytometry); type: cell-based, mouse; conditions: 48-hour stimulation; BW-723C86 50 μM, SB-215505 50 μM per FIG. 6 legend
Method: FIG. 6 depicts that 5-HTR2B signalling in colon cancer affects cell proliferation and viability: Colon cancer MC38 cells were treated with serotonin (100 μM), 5-HTR2B agonist (BW-723C86; 50 μM), or 5-HTR2B antagonist (SB-215505; 50 μM) for 48 hours, and cell cycle analysis was performed by propidium iodide staining using flow cytometry. MC38 cells were also treated with a graded dose of 5-HTR2B agonist (BW-723C86) or serotonin. MTT assay was performed to measure cell viability. (A) After treatment with 5-HTR2B agonist BW-723C86, serotonin, or 5-HTR2B antagonist SB-215505, the relative cell cycle analysis is shown. (B) Relative cell viability data of MC38 cells following treatment of graded doses of 5-HTR2B agonist BW-723C86 or serotonin are shown. The data shown are representative of one of the three independent experiments. (C) MC38 tumor sections from the control tumor and 5-HTR2B antagonist treated tumor were stained for CD31 and the number of CD31^+ micro-blood vessels/mm^2 of tissue sections was counted and plotted to observe angiogenesis. Error bar represents ±standard error of the mean (SEM).
MC38 cells were seeded in 6 well plates at a density of 5×10^4 cells/well. Cells were allowed to accommodate in the environment for 24 hours. The treatment with 5-HTR2B agonist (BW-723C86), Serotonin, and 5-HTR2B antagonist (RS-127445) was performed at different time points. […]

Compound | Ova-specific IFNγ+ CD4 T cells in the tumor ([1]; MC38-cOVA tumor, OT-II tetramer (FIG. 12C-D)) | Ova-specific IL-10+ CD4 T cells in the tumor ([1]; MC38-cOVA tumor, OT-II tetramer (FIG. 12E-G)) | CD69+ activated OVA-specific CTLs percentage in the tumor ([1]; OT-I tetramer (FIG. 11H-I)) | IFNγ+ granzyme B+ effector OVA-specific CTLs percentage in the tumor ([1]; OT-I tetramer (FIG. 11J-M)) | overall percentage of OVA-specific CD8 T cell in the tumor ([1]; OT-I tetramer, MC38-ova tumor (FIG. 11F-G)) | proliferation of CD8 T cells in the presence of OVA in vitro ([1]; cells from treated MC38-cOVA tumor-bearing mice, ovalbumin 50 μg/ml, 5 days, CFSE (FIG. 11D-E)) | percentage of MC38 cells in the S phase of the cell cycle (MC38 cells)
CC(C)c1cc(-c2ccc(F)c3ccccc23)nc(N)n1 [RS-127445] | increased | reduced | enhanced | enhanced | did not enhance the overall percentage | proliferated at a better rate | –
CC(N)Cc1c[nH]c2ccc(OCc3cccs3)cc12 (stereo not shown) [BW-723C86] | – | – | – | – | – | – | increased percentage of cells in the S phase
